Key:
Assay type in all cases: in vivo
cauliflower young plants = assay: Dwarfing test of cauliflower young plant; details: for Plant Height / Dwarfing Rate: 5 ml per cell on 4th day, measured 20th day; for Dwarfing Rate: vs comparative group
Method: [The source words this procedure for another target and says it was used here with some conditions changed.] 50 g of sodium tripolyphosphate was dissolved in 400 ml of distilled water at 80° C., 17.5 g of cinnamic acid was added to the sodium tripolyphosphate solution and dissolved by stirring, the resultant solution was diluted with distilled water until the total volume of solution was 500 ml, and thus 3.5% cinnamic acid aqueous solution (pH 6.5) was prepared. The aqueous solution was further diluted with distilled water 70 times or 17.5 times, and 0.05% cinnamic acid aqueous solution and 0.2% cinnamic acid aqueous solution were prepared, respectively.
Nursery soil for house use was filled into paper joint pots (each with 24 cells: 34×43×50 mm/cell), water was sufficiently given to the soil, and seeds of carrots were sowed. After seeding, the pot was placed in the same greenhouse as described above to sprout. Subsequently, on the 5th day, the cinnamic aqueous acid solutions were added to the nursery soil in the joint pots. One of the joint pots (24 cells) was prepared as a 0.05% cinnamic acid aqueous solution addition group, and 5 ml of the 0.05% cinnamic acid aqueous solution was added to the nursery soil of each cell. Another one of the join pots was prepared as a 0.2% cinnamic acid aqueous solution addition group, and 5 ml of the 0.2% cinnamic acid aqueous solution was added to the nursery soil of each cell. The other one of the joint pots was prepared as a comparative group in which 5 ml of water is added to each cell, instead of the cinnamic acid aqueous solution. Subsequently, the cultivation of carrot young plants in each group was continued under general conditions. On the 27th day, the heights of young plants in each group were measured, the dwarfing rate (%) was calculated, and the dwarfing effect of cinnamic acid aqueous solution on carrot young plants was examined. […].

[1] = system: Chinese cabbage young plants; assay: Dwarfing test of Chinese cabbage young plant; details: for Plant Height / Dwarfing Rate: 5 ml per cell on 4th day, measured 22nd day; for Dwarfing Rate: vs comparative group
Method: Dwarfing rate (%)=[(the plant height of the comparative group)−(the plant height of an addition group)/the plant height of the comparative group]×100
18.4 g of potassium hydroxide was dissolved in 400 ml of distilled water at 20° C., 50 g of cinnamic acid was added to the potassium hydroxide solution and dissolved by stirring, the resultant solution was diluted with distilled water until the total volume of solution was 500 ml, and thus 10% cinnamic acid aqueous solution (pH 8.8) was prepared. The aqueous solution was further diluted with distilled water 100 times or 33.3 times, and 0.1% cinnamic acid aqueous solution and 0.3% cinnamic acid aqueous solution were prepared, respectively.
Nursery soil for house use was filled into a polyethylene joint pot (36 cells: 45×45×30 mm/cell), water was sufficiently given to the soil, and seeds of Chinese cabbage were sowed. After seeding, the pot was placed in the same greenhouse as described above to sprout. Subsequently, on the 4th day, the cinnamic aqueous acid solutions were added to the nursery soil in the joint pot.
Among 36 cells, 12 cells were prepared as a 0.1% cinnamic acid aqueous solution addition group, and 5 ml of the 0.1% cinnamic acid aqueous solution was added to the nursery soil of each cell. Another 12 cells were prepared as a 0.3% cinnamic acid aqueous solution addition group, and 5 ml of the 0.3% cinnamic acid aqueous solution was added to the nursery soil of each cell. Remaining 12 cells were prepared as a comparative group in which 5 ml of water is added to each cell, instead of the cinnamic acid aqueous solution. Subsequently, the cultivation of Chinese cabbage young plants in each group was continued under general conditions. On the 22nd day, the heights of young plants in each group were measured, the dwarfing rate (%) was calculated, and the dwarfing effect of cinnamic acid aqueous solution on Chinese cabbage young plants was examined. […]

eggplant young plants = assay: Dwarfing test of eggplant young plant; details: for Plant Height / Dwarfing Rate: 5 ml per cell on 7th day, measured 25th day; for Dwarfing Rate: vs comparative group
Method: After seeding, the pot was placed in the same greenhouse as described above to sprout. Subsequently, on the 5th day, the cinnamic aqueous acid solutions were added to the nursery soil in the joint pots. One of the joint pots (24 cells) was prepared as a 0.05% cinnamic acid aqueous solution addition group, and 5 ml of the 0.05% cinnamic acid aqueous solution was added to the nursery soil of each cell. Another one of the join pots was prepared as a 0.2% cinnamic acid aqueous solution addition group, and 5 ml of the 0.2% cinnamic acid aqueous solution was added to the nursery soil of each cell. […] Subsequently, the cultivation of carrot young plants in each group was continued under general conditions. On the 27th day, the heights of young plants in each group were measured, the dwarfing rate (%) was calculated, and the dwarfing effect of cinnamic acid aqueous solution on carrot young plants was examined. From the results in Table 5, it became evident that the 0.05% and 0.2% cinnamic acid aqueous solutions are effective in dwarfing carrot young plants. In the same way as in Example 5 except that seeds of cauliflower were sowed, the cinnamic acid solutions were added to the nursery soil in the joint pot on the 4th day, and that heights of young plants in each group were measured on the 20th day, the dwarfing effect of cinnamic acid aqueous solution on cauliflower young plants was examined. From the results in Table 12, it became evident that the cinnamic acid aqueous solutions are effective in dwarfing cauliflower young plants. In the same way as in Example 12 except that seeds of tomato were sowed, and that the cinnamic acid solutions were added to the nursery soil of the joint pot on the 7th day, the dwarfing effect of cinnamic acid aqueous solution on tomato young plants was examined. From the results in Table 17, it became evident that the cinnamic acid aqueous solutions are effective in dwarfing tomato young plants. In the same way as in Example 17 except that seeds of eggplant were sowed, and that plant heights were measured on the 25th day, the dwarfing effect of cinnamic acid aqueous solution on eggplant young plants was examined. From the results in Table 19, it became evident that the cinnamic acid aqueous solutions are effective in dwarfing eggplant young plants.

With `O=C(O)C=Cc1ccccc1` [cinnamic acid] the “Plant Height” value (cauliflower young plants; 0.05% aqueous solution) was 6.8 cm, the “Dwarfing Rate” value (cauliflower young plants; 0.05% aqueous solution) was 22.7% and the “Plant Height” value (cauliflower young plants; 0.2% aqueous solution) was 5.0 cm. The “Dwarfing Rate” value (cauliflower young plants; 0.2% aqueous solution) was 43.2%, the dwarfing effect (cauliflower young plants; cauliflower young plants, 0.05% and 0.2% aqueous solutions) was “effective” and the “Plant Height” value ([1]; 0.1% aqueous solution) was 7.0 cm. The “Dwarfing Rate” value ([1]; 0.1% aqueous solution) was 23.9%, the “Plant Height” value ([1]; 0.3% aqueous solution) was 6.9 cm and the “Dwarfing Rate” value ([1]; 0.3% aqueous solution) was 25.0%. The dwarfing effect ([1]; Chinese cabbage young plants, 0.1% and 0.3% aqueous solutions) was “effective”, the “Plant Height” value (eggplant young plants; 0.05% aqueous solution) was 2.9 cm and the “Dwarfing Rate” value (eggplant young plants; 0.05% aqueous solution) was 12.1%. For the same compound, the “Plant Height” value (eggplant young plants; 0.2% aqueous solution) was 2.3 cm, the “Dwarfing Rate” value (eggplant young plants; 0.2% aqueous solution) was 30.3% and the dwarfing effect (eggplant young plants; eggplant young plants, 0.05% and 0.2% aqueous solutions) was “effective”.

Source: US20040200144A1, “Plant growth regulator and a method of producing the regulator” (Dainichiseika Color & Chemicals Mfg. Co., Ltd., priority 2003, published 2004)
